Laboratory results taken from ChEMBL document CHEMBL4028801, “A multifactorial approach to hepatobiliary transporter assessment enables improved therapeutic compound development” (Toxicol Sci, 2013).
Counter-ions that a name gives are not always drawn. Positions of bridges follow the written chain, without caps; N, C: chain ends. Residues, ends and D or L forms follow the SMILES beside them.

Columns and labels:
Bile salt export pump = Bile salt export pump (Homo sapiens, UniProt O95342); test: Inhibition of human BSEP overexpressed in Sf9 cell membrane vesicles assessed as uptake of [3H]-taurocholate in presence of ATP measured after 15 to 20 mins by membrane vesicle transport assay; assay type: ADME, cell-based
Chain of Bile salt export pump (O95342 whole entry): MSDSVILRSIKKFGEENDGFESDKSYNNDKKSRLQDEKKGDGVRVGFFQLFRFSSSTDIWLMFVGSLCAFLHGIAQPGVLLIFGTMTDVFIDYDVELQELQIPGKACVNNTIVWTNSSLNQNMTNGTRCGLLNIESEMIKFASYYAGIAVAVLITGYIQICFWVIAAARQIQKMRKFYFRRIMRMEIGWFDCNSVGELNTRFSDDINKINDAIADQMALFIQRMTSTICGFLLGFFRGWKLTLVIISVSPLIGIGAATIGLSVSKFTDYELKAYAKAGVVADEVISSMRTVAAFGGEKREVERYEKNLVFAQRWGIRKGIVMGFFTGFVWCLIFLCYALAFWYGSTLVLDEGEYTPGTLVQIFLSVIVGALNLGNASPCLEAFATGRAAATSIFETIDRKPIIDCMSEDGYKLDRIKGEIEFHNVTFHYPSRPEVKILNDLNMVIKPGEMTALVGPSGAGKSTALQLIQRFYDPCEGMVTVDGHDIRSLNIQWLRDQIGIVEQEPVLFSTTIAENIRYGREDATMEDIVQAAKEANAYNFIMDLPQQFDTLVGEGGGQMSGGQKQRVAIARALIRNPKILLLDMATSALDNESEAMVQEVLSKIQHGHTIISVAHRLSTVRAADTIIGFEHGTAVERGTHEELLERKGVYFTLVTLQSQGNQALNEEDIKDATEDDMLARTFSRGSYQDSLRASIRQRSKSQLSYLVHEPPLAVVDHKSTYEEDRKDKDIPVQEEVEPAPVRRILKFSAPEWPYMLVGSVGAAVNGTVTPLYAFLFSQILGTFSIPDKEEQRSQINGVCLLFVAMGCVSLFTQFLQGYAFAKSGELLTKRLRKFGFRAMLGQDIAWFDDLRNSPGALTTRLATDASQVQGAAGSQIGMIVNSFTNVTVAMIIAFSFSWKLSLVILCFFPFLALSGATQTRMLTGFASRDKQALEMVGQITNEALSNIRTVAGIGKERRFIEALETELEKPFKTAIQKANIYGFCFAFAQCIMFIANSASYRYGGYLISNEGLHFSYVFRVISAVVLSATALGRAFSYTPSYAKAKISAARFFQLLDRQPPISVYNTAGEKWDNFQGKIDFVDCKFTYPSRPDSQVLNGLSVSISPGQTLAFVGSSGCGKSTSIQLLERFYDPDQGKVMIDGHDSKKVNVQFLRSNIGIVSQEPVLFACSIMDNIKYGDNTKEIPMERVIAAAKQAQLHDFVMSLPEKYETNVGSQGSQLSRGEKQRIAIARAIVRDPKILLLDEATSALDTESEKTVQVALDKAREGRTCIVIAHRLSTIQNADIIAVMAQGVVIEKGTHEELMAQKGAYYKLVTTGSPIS

[1] = target: ATP-binding cassette sub-family C member 2 (Homo sapiens, UniProt Q92887); test: Inhibition of human MRP2 overexpressed in Sf9 cell membrane vesicles assessed as uptake of [3H]-estradiol-17beta-D-glucuronide in presence of ATP and GSH measured after 20 mins by membrane vesicle transport assay
Chain of ATP-binding cassette sub-family C member 2 (Q92887 whole entry): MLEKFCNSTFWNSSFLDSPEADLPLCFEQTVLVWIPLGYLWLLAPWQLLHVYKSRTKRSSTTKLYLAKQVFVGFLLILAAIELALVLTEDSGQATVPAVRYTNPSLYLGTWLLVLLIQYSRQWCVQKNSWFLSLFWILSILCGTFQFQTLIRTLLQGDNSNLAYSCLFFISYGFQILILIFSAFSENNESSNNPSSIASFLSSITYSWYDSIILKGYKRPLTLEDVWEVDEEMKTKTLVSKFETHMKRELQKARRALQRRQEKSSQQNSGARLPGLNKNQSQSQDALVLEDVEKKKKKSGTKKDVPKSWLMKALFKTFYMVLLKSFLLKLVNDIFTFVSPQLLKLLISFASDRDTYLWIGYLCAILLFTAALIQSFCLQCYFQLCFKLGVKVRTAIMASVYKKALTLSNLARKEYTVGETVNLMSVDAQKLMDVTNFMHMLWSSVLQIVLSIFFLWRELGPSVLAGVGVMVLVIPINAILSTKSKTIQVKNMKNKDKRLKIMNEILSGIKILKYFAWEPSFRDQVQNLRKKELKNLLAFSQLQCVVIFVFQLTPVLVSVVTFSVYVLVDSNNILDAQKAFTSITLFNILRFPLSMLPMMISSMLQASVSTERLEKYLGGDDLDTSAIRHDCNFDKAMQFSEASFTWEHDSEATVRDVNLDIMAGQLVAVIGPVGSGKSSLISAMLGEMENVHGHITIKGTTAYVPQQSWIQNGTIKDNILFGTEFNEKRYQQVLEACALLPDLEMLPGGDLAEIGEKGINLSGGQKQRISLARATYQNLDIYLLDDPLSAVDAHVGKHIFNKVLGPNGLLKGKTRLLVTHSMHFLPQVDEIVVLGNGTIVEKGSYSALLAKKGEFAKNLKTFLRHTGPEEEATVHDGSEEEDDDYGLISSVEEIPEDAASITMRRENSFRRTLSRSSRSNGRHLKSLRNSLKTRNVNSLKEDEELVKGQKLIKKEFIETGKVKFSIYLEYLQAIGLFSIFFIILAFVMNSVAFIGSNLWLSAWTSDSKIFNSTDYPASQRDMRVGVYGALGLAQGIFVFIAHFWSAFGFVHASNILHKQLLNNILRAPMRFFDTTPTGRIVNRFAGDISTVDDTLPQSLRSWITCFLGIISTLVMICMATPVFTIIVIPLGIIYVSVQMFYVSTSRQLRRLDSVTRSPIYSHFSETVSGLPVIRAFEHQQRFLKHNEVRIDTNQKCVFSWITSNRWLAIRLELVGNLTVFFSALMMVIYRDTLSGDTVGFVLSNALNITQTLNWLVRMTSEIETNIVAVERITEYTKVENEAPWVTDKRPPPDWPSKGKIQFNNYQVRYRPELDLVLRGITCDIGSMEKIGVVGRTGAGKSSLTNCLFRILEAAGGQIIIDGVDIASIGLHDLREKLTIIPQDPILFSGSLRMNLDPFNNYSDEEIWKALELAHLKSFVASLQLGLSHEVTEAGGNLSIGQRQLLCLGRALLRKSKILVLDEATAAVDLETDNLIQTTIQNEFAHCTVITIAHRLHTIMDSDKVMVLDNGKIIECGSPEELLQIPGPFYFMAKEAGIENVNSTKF

[2] = target: ATP-binding cassette sub-family C member 3 (Homo sapiens, UniProt O15438); test: Inhibition of human MRP3 overexpressed in Sf9 insect cell membrane vesicles assessed as uptake of [3H]-estradiol-17beta-D-glucuronide in presence of ATP and GSH measured after 10 mins by membrane vesicle transport assay; assay type: ADME, cell-based
Chain of ATP-binding cassette sub-family C member 3 (O15438 whole entry): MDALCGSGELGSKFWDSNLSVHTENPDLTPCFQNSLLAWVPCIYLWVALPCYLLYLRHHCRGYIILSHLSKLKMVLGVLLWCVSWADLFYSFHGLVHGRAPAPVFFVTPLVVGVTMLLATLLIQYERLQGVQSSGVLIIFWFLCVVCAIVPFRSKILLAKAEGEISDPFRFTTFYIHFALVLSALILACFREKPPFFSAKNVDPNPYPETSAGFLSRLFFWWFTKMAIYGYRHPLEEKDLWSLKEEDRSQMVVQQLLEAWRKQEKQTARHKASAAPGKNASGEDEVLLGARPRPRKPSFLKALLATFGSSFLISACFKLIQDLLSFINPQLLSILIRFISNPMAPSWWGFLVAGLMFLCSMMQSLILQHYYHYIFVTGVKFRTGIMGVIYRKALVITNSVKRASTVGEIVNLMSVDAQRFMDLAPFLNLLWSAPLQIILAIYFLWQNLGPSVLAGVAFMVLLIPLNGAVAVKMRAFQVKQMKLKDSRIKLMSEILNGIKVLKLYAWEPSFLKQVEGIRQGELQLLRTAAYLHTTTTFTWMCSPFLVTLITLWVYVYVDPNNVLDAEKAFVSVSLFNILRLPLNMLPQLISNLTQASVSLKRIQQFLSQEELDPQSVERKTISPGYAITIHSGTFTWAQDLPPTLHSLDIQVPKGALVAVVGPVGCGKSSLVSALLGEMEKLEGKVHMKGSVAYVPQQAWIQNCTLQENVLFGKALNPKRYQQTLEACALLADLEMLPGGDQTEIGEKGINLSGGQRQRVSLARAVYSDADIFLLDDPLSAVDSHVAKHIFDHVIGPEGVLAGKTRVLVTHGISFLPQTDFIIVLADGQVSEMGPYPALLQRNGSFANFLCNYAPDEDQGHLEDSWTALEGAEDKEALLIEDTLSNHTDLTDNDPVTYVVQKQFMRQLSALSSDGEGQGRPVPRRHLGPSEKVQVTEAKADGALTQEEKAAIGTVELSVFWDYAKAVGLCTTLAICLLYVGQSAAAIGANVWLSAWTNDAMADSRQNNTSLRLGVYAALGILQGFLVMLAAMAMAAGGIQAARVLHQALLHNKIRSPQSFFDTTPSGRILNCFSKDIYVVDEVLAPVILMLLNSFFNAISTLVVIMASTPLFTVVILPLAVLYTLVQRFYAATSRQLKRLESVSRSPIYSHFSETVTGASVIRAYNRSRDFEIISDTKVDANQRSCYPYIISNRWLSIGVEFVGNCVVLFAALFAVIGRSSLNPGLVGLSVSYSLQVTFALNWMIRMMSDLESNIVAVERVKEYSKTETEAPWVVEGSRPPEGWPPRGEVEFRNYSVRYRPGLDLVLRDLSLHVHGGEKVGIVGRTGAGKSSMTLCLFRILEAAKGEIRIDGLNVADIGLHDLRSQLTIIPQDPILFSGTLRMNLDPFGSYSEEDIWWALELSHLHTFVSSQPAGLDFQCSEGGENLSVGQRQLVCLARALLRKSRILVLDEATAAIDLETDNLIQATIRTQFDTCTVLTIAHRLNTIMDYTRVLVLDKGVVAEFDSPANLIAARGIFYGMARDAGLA

[3] = target: T1, ATP-binding cassette sub-family C member 4 (Homo sapiens, UniProt O15439); test: Inhibition of human MRP4 overexpressed in Sf9 cell membrane vesicles assessed as uptake of [3H]-estradiol-17beta-D-glucuronide in presence of ATP and GSH measured after 20 mins by membrane vesicle transport assay; assay type: ADME, cell-based
T1 sequence (O15439 whole entry): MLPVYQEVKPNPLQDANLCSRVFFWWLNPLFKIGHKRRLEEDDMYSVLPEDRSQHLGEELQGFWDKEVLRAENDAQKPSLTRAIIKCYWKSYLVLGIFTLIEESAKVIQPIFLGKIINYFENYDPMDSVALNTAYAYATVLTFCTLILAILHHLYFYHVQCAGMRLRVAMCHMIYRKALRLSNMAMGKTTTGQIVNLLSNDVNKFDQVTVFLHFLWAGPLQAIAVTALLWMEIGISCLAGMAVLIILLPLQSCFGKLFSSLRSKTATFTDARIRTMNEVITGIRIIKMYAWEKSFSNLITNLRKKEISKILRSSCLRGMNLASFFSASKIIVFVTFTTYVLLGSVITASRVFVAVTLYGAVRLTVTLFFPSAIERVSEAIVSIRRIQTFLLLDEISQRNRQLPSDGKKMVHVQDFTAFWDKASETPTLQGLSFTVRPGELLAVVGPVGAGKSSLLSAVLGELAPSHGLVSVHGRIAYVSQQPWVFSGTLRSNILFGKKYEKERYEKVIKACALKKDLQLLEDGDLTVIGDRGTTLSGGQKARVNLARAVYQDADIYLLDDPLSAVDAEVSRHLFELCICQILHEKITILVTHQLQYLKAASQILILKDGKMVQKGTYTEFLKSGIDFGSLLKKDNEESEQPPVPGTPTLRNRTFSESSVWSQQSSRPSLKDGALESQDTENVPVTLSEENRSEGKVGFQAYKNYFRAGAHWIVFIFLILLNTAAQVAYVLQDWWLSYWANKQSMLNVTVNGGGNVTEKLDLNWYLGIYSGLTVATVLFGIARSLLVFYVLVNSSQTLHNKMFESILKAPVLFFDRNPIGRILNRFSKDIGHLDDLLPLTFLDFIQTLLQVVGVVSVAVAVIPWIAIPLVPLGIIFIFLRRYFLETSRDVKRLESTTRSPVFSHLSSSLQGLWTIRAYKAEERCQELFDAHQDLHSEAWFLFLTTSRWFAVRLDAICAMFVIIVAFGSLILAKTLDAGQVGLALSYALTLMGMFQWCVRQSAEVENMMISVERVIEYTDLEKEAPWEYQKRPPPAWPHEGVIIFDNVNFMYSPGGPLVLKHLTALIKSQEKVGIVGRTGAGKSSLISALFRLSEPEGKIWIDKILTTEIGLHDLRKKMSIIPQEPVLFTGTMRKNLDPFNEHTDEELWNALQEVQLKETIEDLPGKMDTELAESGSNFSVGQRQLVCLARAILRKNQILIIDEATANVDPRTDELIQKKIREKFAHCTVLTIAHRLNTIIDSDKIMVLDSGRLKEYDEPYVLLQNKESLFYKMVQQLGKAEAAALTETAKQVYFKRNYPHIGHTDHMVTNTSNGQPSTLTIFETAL

Row | Compound | IC50 (Bile salt export pump) [µM] | IC50 [1] [µM] | IC50 [2] [µM] | IC50 [3] [µM]
1 | Cc1ccc(C(=O)Nc2ccc(S(=O)(=O)O)c3cc(S(=O)(=O)O)cc(S(=O)(=O)O)c23)cc1NC(=O)c1cccc(NC(=O)Nc2cccc(C(=O)Nc3cc(C(=O)Nc4ccc(S(=O)(=O)O)c5cc(S(=O)(=O)O)cc(S(=O)(=O)O)c45)ccc3C)c2)c1 [SURAMIN] | > 133 | 36.8 | > 133 | > 133
2 | C[C@@H](O)[C@H]1C(=O)N2C(C(=O)O)=C(S[C@@H]3CN[C@H](C(=O)N(C)C)C3)[C@H](C)[C@H]12 [MEROPENEM] | > 133 | > 133 | > 133 | > 133
3 | C[C@]12CC[C@@H]3c4ccc(O)cc4C[C@@H](CCCCCCCCC[S+]([O-])CCCC(F)(F)C(F)(F)F)[C@H]3[C@@H]1CC[C@@H]2O (stereo not given in full) [FULVESTRANT] | > 133 | > 133 | > 133 | > 133
4 | Cc1c(OCC(F)(F)F)ccnc1C[S+]([O-])c1nc2ccccc2[nH]1 (stereo not given) [LANSOPRAZOLE] | > 133 | > 133 | > 133 | > 133
5 | COc1ccc(CC2c3cc(OC)c(OC)cc3CC[N+]2(C)CCC(=O)OCCCCCOC(=O)CC[N+]2(C)CCc3cc(OC)c(OC)cc3C2Cc2ccc(OC)c(OC)c2)cc1OC (stereo not given) [ATRACURIUM BESYLATE] | > 133 | > 133 | > 133 | > 133
6 | CCOc1cc2ncc(C#N)c(Nc3ccc(OCc4ccccn4)c(Cl)c3)c2cc1NC(=O)/C=C/CN(C)C [NERATINIB] | 25 | > 133 | > 133 | 23
7 | Clc1ccc2nsnc2c1NC1=NCCN1 [TIZANIDINE] | > 133 | > 133 | > 133 | > 133
8 | Cn1c(=O)n(-c2ccc(C(C)(C)C#N)cc2)c2c3cc(-c4cnc5ccccc5c4)ccc3ncc21 [DACTOLISIB] | 7.9 | > 133 | > 133 | > 133
9 | c1ccc2c(c1)OCC(C1=NCCN1)O2 (stereo not given) [IDAZOXAN] | > 133 | > 133 | > 133 | > 133
10 | C#CCN[C@@H]1CCc2ccccc21 [RASAGILINE MESYLATE] | > 133 | > 133 | > 133 | > 133
11 | Oc1ccc(C2CNCCc3c2cc(O)c(O)c3Cl)cc1 (stereo not given) [FENOLDOPAM MESYLATE] | > 133 | > 133 | > 133 | > 133
12 | CCN(CC)CCOc1ccc(C(=C(Cl)c2ccccc2)c2ccccc2)cc1 [CLOMIPHENE] | > 133 | > 133 | > 133 | > 133
13 | COc1cc([C@@H]2c3cc4c(cc3[C@@H](O[C@@H]3O[C@@H]5CO[C@@H](c6cccs6)O[C@H]5[C@H](O)[C@H]3O)[C@H]3COC(=O)[C@H]23)OCO4)cc(OC)c1O [TENIPOSIDE] | > 133 | > 133 | 20.6 | 34.9
14 | CSc1ccc(C(=O)c2[nH]c(=O)[nH]c2C)cc1 [ENOXIMONE] | > 133 | > 133 | > 133 | > 133
15 | CN(C)CC[C@@H](c1ccc(Cl)cc1)c1ccccn1 [DEXCHLORPHENIRAMINE MALEATE] | > 133 | > 133 | > 133 | > 133
16 | OC(CNCC(O)C1CCc2cc(F)ccc2O1)C1CCc2cc(F)ccc2O1 (stereo not given) [NEBIVOLOL HYDROCHLORIDE] | > 133 | > 133 | > 133 | > 133
17 | C[C@H]1O[C@H](O[C@H]2[C@H](O)[C@@H](O)[C@@H](O[C@H]3[C@H](O)[C@@H](O)C(O)O[C@@H]3CO)O[C@@H]2CO)[C@H](O)[C@@H](O)[C@@H]1N[C@H]1C=C(CO)[C@@H](O)[C@H](O)[C@H]1O (stereo not given in full) [ACARBOSE] | > 133 | > 133 | > 133 | > 133
18 | CC(C)NCC(O)COc1ccc(CC(N)=O)cc1 (stereo not given) [ATENOLOL] | > 133 | > 133 | > 133 | > 133

Row | Compound | IC50 (Bile salt export pump) [µM] | IC50 [1] [µM] | IC50 [2] [µM] | IC50 [3] [µM]
19 | CN(C)CCCC1(c2ccc(F)cc2)OCc2cc(C#N)ccc21 (stereo not given) [CITALOPRAM] | > 133 | > 133 | > 133 | > 133
20 | Nc1ccn(C[C@@H](CO)OCP(=O)(O)O)c(=O)n1 [CIDOFOVIR] | > 133 | > 133 | > 133 | > 133
21 | NCCCC[C@H](NC(=O)[C@@H]1CCCN1C(=O)[C@@H]1CSSC[C@H](NC(=O)CNC(=O)CNC(=O)CN)C(=O)N[C@@H](Cc2ccc(O)cc2)C(=O)N[C@@H](Cc2ccccc2)C(=O)N[C@@H](CCC(N)=O)C(=O)N[C@@H](CC(N)=O)C(=O)N1)C(=O)NCC(N)=O (H-GGGCYFQNCPKG-NH2; disulfide 4-9) | > 133 | > 133 | > 133 | > 133
22 | C[C@@H]1C/C=C/C=C/C=C/C=C/[C@H](O[C@@H]2O[C@H](C)[C@@H](O)[C@H](N)[C@@H]2O)C[C@@H]2O[C@](O)(C[C@@H](O)C[C@H]3O[C@@H]3/C=C/C(=O)O1)C[C@H](O)[C@H]2C(=O)O [NATAMYCIN] | > 133 | > 133 | > 133 | > 133
23 | COc1cc(NS(C)(=O)=O)ccc1Nc1c2ccccc2nc2ccccc12 [AMSACRINE] | > 133 | > 133 | > 133 | 7.43
24 | CCCCCCCCCCC[C@@H](C[C@@H]1OC(=O)[C@H]1CCCCCC)OC(=O)[C@H](CC(C)C)NC=O [ORLISTAT] | > 133 | > 133 | > 133 | > 133
25 | Clc1ccc(COC(Cn2ccnc2)c2ccc(Cl)cc2Cl)c(Cl)c1 (stereo not given) [MICONAZOLE NITRATE] | 114 | > 133 | > 133 | > 133
26 | C[C@H]1c2cccc(O)c2C(=O)C2=C(O)[C@]3(O)C(=O)C(C(N)=O)=C(O)[C@@H](N(C)C)[C@@H]3[C@@H](O)[C@@H]21 [DOXYCYCLINE HYDROCHLORIDE] | > 133 | > 133 | > 133 | > 133
27 | CN1CC(=O)N2[C@H](c3ccc4c(c3)OCO4)c3[nH]c4ccccc4c3C[C@@H]2C1=O | > 133 | > 133 | > 133 | > 133
28 | CCOC(=O)[N-]c1cn(N2CCOCC2)n[o+]1 [MOLSIDOMINE] | > 133 | > 133 | > 133 | > 133
29 | CC(=O)NS(=O)(=O)c1ccc(N)cc1 | > 133 | > 133 | > 133 | > 133
30 | CC(C)[C@H]1CC[C@H](C(=O)N[C@H](Cc2ccccc2)C(=O)O)CC1 [NATEGLINIDE] | > 133 | > 133 | 104 | > 133
31 | CC1(C)S[C@@H]2[C@H](NC(=O)[C@H](NC(=O)N3CCNC3=O)c3ccccc3)C(=O)N2[C@H]1C(=O)O [AZLOCILLIN SODIUM] | > 133 | > 133 | > 133 | > 133
32 | CCCCc1ncc(/C=C(\Cc2cccs2)C(=O)O)n1Cc1ccc(C(=O)O)cc1 [EPROSARTAN] | > 133 | 57.9 | 6.65 | > 133
33 | Oc1ccc2c(c1)[C@@]13CCCC[C@@]1(O)[C@@H](C2)N(CC1CCC1)CC3 [BUTORPHANOL] | > 133 | > 133 | > 133 | > 133
34 | CC(C)(C)NCC(O)c1cc(O)cc(O)c1 (stereo not given) [TERBUTALINE] | > 133 | > 133 | > 133 | > 133
35 | CCC1(C)CC(=O)NC1=O (stereo not given) [ETHOSUXIMIDE] | > 133 | > 133 | > 133 | > 133
